Patent US6429024B1, “Test method for IgA nephropathy” (Asahi Kasei Kabushiki Kaisha, priority 1998, dated 2002)

Tested on: antibody recognizing the core peptide of the hinge region in IgA1 (IgG class, serum of patient with IgA nephropathy)
Assay: Assay of inhibitory activities of various synthetic peptides (enzyme immunoassay: patient serum pre-incubated with peptide, then reacted with immobilized IgA1 hinge core peptide-BSA antigen)
Type: binding
Conditions: synthetic peptide 1 μg/ml in PBS mixed 1:1 with 1/50 diluted serum, room temperature 3 hours; peroxidase labeled anti-human IgG; absorbancy at 490 nm
Experimental: Antigen was prepared according to the method described in the above example 1 (1).
The above antigen solution was dissolved to […] in 0.015 M carbonate buffer (pH 9.6) and each 100 μl was added in each well of the 96 well microtiter plate (A Flow General Co., Linbro/Titertek EIA Microtitration plate, Cat. No. 76-381-04), then incubated at 4° C. overnight (standing culture).
PBS (0.01 M phosphate buffer, pH 7.5 containing 0.15 M NaCl) solution (200 μl) containing 1% bovine serum albumin (fraction V, purchased from SIGMA Inc.) was added in each well, and incubated at 4° C. overnight. Each well was washed with 200 μl of PBS. The antigen was immobilized.
Synthetic peptide [the core peptide constructing a part of the hinge region in IgA1 as follows:
was dissolved to 1 μg/ml with PBS. The above diluted serum of patient with IgA nephropathy and the solution of synthetic peptide were mixed in equal volume (1:1). Also the above diluted serum of patient with IgA nephropathy and PBS without containing synthetic peptide (hereinafter designated as blank solution) were mixed in equal volume (1:1). These mixtures were incubated at room temperature for 3 hours.
After termination of the incubation, each solution (100 μl) was added in each well, which was provided with the antigen immobilized therein, of the 96 well microtiter plate and incubated at room temperature for 3 hours.
Each well was washed three times with 200 μl of PBS containing 0.1% bovine serum albumin, 0.05% Tween-20 (hereinafter designated as PS/BSA/Tween).
A solution (100 μl) of peroxidase labeled anti-human IgG (purchased from Organon Tecknika Inc.), which was diluted to 1/200 with PBS, was added in each well.
After incubation at room temperature for 1 hour, each well was washed three times with PS/BSA/Tween (200 μl).
Coloring agent (100 μl)(orthophenylenediamine 20 mg, sodium […]·12H2O 1.795 g, citric acid 0.525 g, and hydrogen peroxide 15 μl were dissolved in water 50 ml) was added in each well, and incubated at room temperature for 1 hour.
After the incubation was terminated, absorbency at 490 nm was measured using microplate reader (Bio-Red Inc., Microplate reader Model 450).

Row | Substance | inhibitory action on the reaction of patient serum with the core peptide of the hinge region in IgA1
1 | Leu Lys Pro Asp Pro (LKPDP; listed as Bovine sp.) [core peptide constructing a part of the bovine serum albumin, reference compound] | no inhibitory action on the reaction was observed
2 | Leu Pro Pro Leu Thr (LPPLT; listed as Bovine sp.) [core peptide constructing a part of the bovine serum albumin, reference compound] | no inhibitory action on the reaction was observed
3 | Pro Ser Pro Ser Cys (PSPSC) [core peptide constructing a part of the hinge region in IgA1] | inhibitory action on the reaction was observed
4 | Pro Ser Pro Ser Thr (PSPST) [core peptide constructing a part of the hinge region in IgA1] | inhibitory action on the reaction was observed
5 | Pro Ser Thr Pro Pro (PSTPP) [core peptide constructing a part of the hinge region in IgA1] | inhibitory action on the reaction was observed
6 | Pro Thr Pro Ser Pro (PTPSP) [core peptide constructing a part of the hinge region in IgA1] | inhibitory action on the reaction was observed
7 | Pro Val Pro Ser Thr (PVPST) [core peptide constructing a part of the hinge region in IgA1] | inhibitory action on the reaction was observed
8 | Ser Pro Asp Leu Pro (SPDLP; listed as Bovine sp.) [core peptide constructing a part of the bovine serum albumin, reference compound] | no inhibitory action on the reaction was observed
9 | Thr Pro Asp Glu Thr (TPDET; listed as Bovine sp.) [core peptide constructing a part of the bovine serum albumin, reference compound] | no inhibitory action on the reaction was observed
10 | Thr Pro Pro Thr Pro (TPPTP) [core peptide constructing a part of the hinge region in IgA1] | inhibitory action on the reaction was observed
11 | Thr Pro Val Glu Ser (TPVES; listed as Bovine sp.) [core peptide constructing a part of the bovine serum albumin, reference compound] | no inhibitory action on the reaction was observed
